From a melting point compilation (Tetko et al.; mined from patent text by program, amines drawn as free bases though some values may be those of a salt) come the findings set out here.

Molecules are shown by their SMILES.

The melting point is the temperature, or range, at which the solid turns liquid. As for `CCCc1cc(C#N)sc1-c1ccc2c(c1)C(C)(C)OC(=O)N2`, the melting point was 160 to 162 °C.
Turning to `Cc1cc(-c2cc3c(cc2F)c(=O)c(C(=O)O)cn3C2CC2)cc(CO)n1`, the melting point was in the range of 270 to 272 °C.
With `Cc1cccc(-n2nc(C)cc2-c2ccnc(C#N)c2)c1` the figure was 128 to 130 °C; with `CCCCc1ncc(CNC(Cc2cccs2)C(=O)O)n1Cc1ccc(C(=O)O)cc1` (configuration not stated), 151 to 152 °C; with `NC1=NS(=O)N=C1NCCCN(Cc1cccc(F)c1)c1ccccn1` (configuration not stated), 160 to 162 °C.
The figure for `COc1cc(C=CC=C2SC(=O)NC2=O)ccc1OCc1coc(-c2ccccc2)n1` is 230 to 231 °C; for `CC(C)Oc1ccc(-c2nn(C(C)c3oc4cccc(F)c4c(=O)c3-c3cccc(F)c3)c3ncnc(N)c23)cc1F` (configuration not stated) it is 228 to 230 °C; for `Cc1oc2ccccc2c(=O)c1C(=O)O` it is 120 to 135 °C.
The figure for `CCC1(CC)CN(C(C)(C)C)C(=O)C(CC)(CC)N1OC(C)c1ccccc1` (configuration not stated) is 85 to 90 °C.
The molecule `CONCc1cc(-n2c(=O)cc(C(F)(F)F)n(C)c2=O)ccc1Cl` displayed a melting point of 83 to 85 °C.
`Cn1cc(C#N)c(Nc2ccc([N+](=O)[O-])cc2N)n1` had a melting point of 204 °C.
The figure for `Cc1ccc(N2CCN(CCC3NC(=O)c4ccccc43)CC2)cc1C` (configuration not stated) is 167 to 169 °C; for `CCCCCCCCCCCCCCCCCCNC(=O)C(N)=O` it is 169 °C; for `Cc1cc(F)ccc1-c1cncc(OC2SCC(O)C(O)C2O)c1` (configuration not stated) it is 217 °C.
The figure for `CCCCCCCc1cc(O)cc2c1C(=O)OC(C)(C)O2` is 100 to 102 °C; for `COc1c(C2CCN(CCCCNC(=O)c3oc(-c4ccc(C#N)cc4)nc3CO)CC2)ccc2c1CCCC2` it is 160 to 162 °C; for `CN(C)C(=O)Nc1ccc(CN2OCC(C)(C)C2=O)c(Cl)c1` it is 145 to 147 °C.
The figure for `COC(=O)c1cc2c(cc1OC)OCO2` is 74 to 75 °C; for `Cn1cc(C(=O)NCc2ccc(Cl)cc2)c(=O)c2cc(CN3CCCSCC3)ccc21` it is 166 to 167 °C; for `CCOC(=O)C(=NOCC(N)=O)c1csc(NC(c2ccccc2)(c2ccccc2)c2ccccc2)n1` it is 180 °C.
Molecule `CCCCNC(=O)Nc1ccc(N(C)C)cc1C(=O)NCC1CCN(C(c2ccccc2)c2ccccc2)CC1` came in with a melting point of 201 to 203 °C.
As for `CCN(CCNC(=O)c1ccnc(F)c1)CCNC(=O)c1cnc2cc(I)ccc2n1`, the melting point lay within 146 to 148 °C.
`CC(=O)Oc1cc([N+](=O)[O-])ccc1CBr` had a melting point of 76.5 to 78 °C.
The figure for `C=C(CS(C)(=O)=O)C(=O)O` is 147 to 149 °C; for `CCOC(=O)c1[nH]c2cc(Cl)cc(Cl)c2c1N(Cc1ccccc1)C(=O)c1ccccc1` it is 174 to 175 °C.
The figure for `CCOC(=O)C1=C(N)NC(C)=CC1c1ccc(OC)cc1` (configuration not stated) is 160 to 161 °C; for `c1coc(-c2ccc(-c3ccco3)cc2)c1` it is 149 to 150 °C.
With `O=C(NC(c1ccccc1)c1ccccc1)c1c[nH]cn1` the figure was 201 to 202 °C; with `CCCCCCCCCCCCCCCCCCOc1ccc(C(=O)O)c(OCCCOc2ccc(OCc3ccccc3)cc2)c1`, 102 to 104 °C; with `CCc1cccc(C)c1CNc1cc(C(=O)O)nc2c1nc(C)n2C`, 235 to 238 °C.
With `CCN1C(=O)C(C)(C)C(=O)N(C)c2cc(CN(CCn3ccc4occc4c3=O)Cc3cccnc3COC)ccc21`, the melting point was in the range of 123 to 125 °C.
With `COc1ccc(Cl)cc1C(=O)NCCOc1ccc(CC2SC(=O)NC2=O)cc1` (configuration not stated) the figure was 66 to 67 °C; with `CC(C)(C)C(=O)c1c[nH]c2ncc(-c3cccc(NC4=NCCN4)c3)nc12`, 228 to 230 °C; with `Nc1nc(Cl)c(C(F)(F)F)cc1Cl`, 110 to 112 °C.
The figure for `CCCCc1cn(Cc2ccc(-c3ccccc3C(=O)OC)cc2)c2cc(C(=O)N3CCCC3)ccc2c1=O` is 191 °C.
In the case of `CC(=O)Nc1c(N(C)C)cnn(C)c1=O`, the melting point fell in the range of 123 to 124 °C.
As to `Fc1cc(F)c(-c2cncn2-c2ccc(Cl)cc2)c(F)c1`, the melting point was in the range of 170 to 172 °C.
The figure for `COC(=O)c1ccc(C#CCc2cccc3c2OCCC3(C)C)cc1O` is 92 to 93 °C.
`CCCCCCCCCCCCCCCCCC(=O)ON1C(C)(C)CC(OC(C)=O)CC1(C)C` came in with a melting point of 55 to 58 °C.
With `Cc1ccc(-n2c(=O)c3c(N4CCNCC4)cc(Cl)cc3n(Cc3ccccc3)c2=O)cc1` the figure was 120 to 124 °C.
With `Cc1ccccc1Cn1[nH]c(N)cc1=O` the figure was 138 °C; with `CC(C)(CCl)C(=O)COc1ccc(-c2ccc(Cl)cc2)cc1`, 67 to 68 °C; with `CCN(C)c1nsc(NC(=O)N(C)C)c1C#N`, 115 to 130 °C.
With `COc1cccc(CCc2c(C(=O)O)ccc(OC)c2OC)c1` the figure was 156 to 158 °C; with `C=CCN1C(=O)CC(=O)N(c2ccccc2)c2cc(Cl)ccc21`, 199 to 201 °C; with `COc1cc(C(=O)N2CCC3(CC2)Cc2ccccc2O3)cc(OC)c1OC`, 148 to 150 °C.
Consider `Cn1c(=O)n(-c2cc(Cl)cc(Cl)c2)c(=O)n1C`, for which the melting point fell in the range of 209 to 211 °C.
With `CC(=O)OCC1OC(n2cc(C3=C(c4c[nH]c5ccccc45)C(=O)N(C)C3=O)c3cccnc32)C(OC(C)=O)C(OC(C)=O)C1OC(C)=O` (configuration not stated) the figure was 119 to 121 °C; with `CCCCOC(=O)COc1ccc(C(=O)Nc2ccccc2Sc2ccc(Cl)cc2-c2nnn[nH]2)cc1`, 156 to 157 °C; with `COc1cc(Nc2c(-c3ccc(S(C)(=O)=O)cc3)cnn(CC(F)(F)F)c2=O)cc(C(F)(F)F)c1`, 206 to 208 °C.
With `CCC(Cl)Cc1sc(O)nc1C` (configuration not stated) the figure was 84 to 85 °C; with `O=C(NCC(F)(F)F)NCC(F)(F)F`, 154 to 155 °C; with `COC1CNCc2cc3ccccc3n21` (configuration not stated), 120 to 122 °C.
With `C=C1N(S(=O)(=O)c2ccc(C)cc2)C(=O)OC12CCN(Cc1ccccc1)CC2` the figure was 157 to 158 °C; with `N=C(N)SCc1cccc(CSC(=N)N)c1`, 216 to 218 °C; with `CC(C)(C)OC(=O)Nc1ccc(C#Cc2ccc(F)cc2)cc1NC(=O)CC(=O)c1cccc(-n2cncn2)c1`, 131 to 139 °C.
As to `CC(C)Oc1c(-c2ccc3c(c2)[C@@H](N2Cc4ccccc4C2=O)[C@H](O)C(C)(C)O3)c(=O)c1=O` (relative stereo), the melting point was more than 250 °C.
The molecule `O=C1CN(c2ccc(CC3NC(=O)c4ccccc4NC3=O)cc2O)S(=O)(=O)N1` (configuration not stated) yielded a melting point of 180 °C.
In turn, `Cc1ccc2c(c1)C(c1ccncc1)CC2(O)c1ccc(F)cc1` (configuration not stated) registered a melting point of 187 to 192 °C.
With `CCCNC(=O)c1ccc(CCN2CC=C(c3c[nH]c(-c4ccc(F)cc4)c3-c3ccncc3)CC2)cc1` the figure was 227 to 230 °C; with `CNC(=S)CC(=S)N(c1c(C)cccc1C)C(C)C(=O)OC` (configuration not stated), 119 to 121 °C.
`Fc1cnc2[nH]ccc2c1` returned a melting point of 110 °C.
With `Cc1c(Br)c2c(c(C)c1NC(=O)OC(C)(C)C)C(N1CCCC1)C(C)(C)O2` (configuration not stated) the figure was 128 to 130 °C; with `CC1CC2=CC(=O)CCC2C2C(O)CC3(C)C(=O)CCC3C12` (configuration not stated), 200 °C.
The molecule `CCC(NS(C)(=O)=O)c1ccc(Cl)c2nc3n(c12)CCCN3c1ccc(Cl)cc1Cl` (configuration not stated) showed a melting point of 125 to 126 °C.
The figure for `O=C1CCC(N2Cc3c(OCc4nc(CN5CCOCC5)no4)cccc3C2=O)C(=O)N1` (configuration not stated) is 150 to 152 °C; for `OC(CCn1ccnc1)(c1ccccc1)c1ccc2sc3ccccc3c2c1` (configuration not stated) it is 88 to 91 °C.
`O=c1[nH]c2ccccc2n1CCCCCCCl` yielded a melting point of 80 to 84 °C.
With `CC(=O)Nc1ccc(F)cc1OCCOc1ccc(N)cc1F` the figure was 134 to 136 °C; with `CN(C)C(=N[N+](=O)[O-])NCc1cnc(Cl)s1`, 155 to 160 °C.
Consider `CC(C)(C)OC(=O)N1CCC(c2c[nH]c3ccc(N)cc23)CC1`, for which the melting point was in the range of 205 to 207 °C.
Consider `CCCCN(CCCC)c1ccc(C=Cc2cc(C)c(C=CC3=C(C#N)C(=C(C#N)C#N)OC3(C)C(F)(F)F)cc2C)c(OC)c1` (configuration not stated), for which the melting point is 205 to 207 °C.
Consider `Cn1c(=O)ccc2cnc(N3CCC[C@H]3CO)nc21`, for which the melting point was in the range of 143 to 144 °C.
`COc1c(C2CCN(CCCCNC(=O)c3sc(-c4ccc(C#N)cc4)nc3CO)CC2)ccc2c1CCCC2` registered a melting point of 212 °C.
As to `COc1ccc(Cn2cnc3c(-c4ccco4)nc(I)nc32)cc1`, the melting point is 145 to 148 °C.
For the molecule `Cc1nc2c(N)nc3ccccc3c2n1CCOCCNS(=O)(=O)C(C)C`, the melting point lay in the range of 172 to 175 °C.
With `C=CCNc1nc(NCC=C)nc(N(CCCCCCN(c2nc(NCC=C)nc(NCC=C)n2)C2CC(C)(C)NC(C)(C)C2)C2CC(C)(C)NC(C)(C)C2)n1` the figure was 161 to 163 °C; with `COc1ccc2[nH]c(SCc3nccc(N4CCCCC4)n3)nc2c1`, 145 to 147 °C; with `CC(=O)ONc1nc(CC(=O)Nc2cccc(C(F)(F)F)c2)cs1`, 137 to 140 °C.
`CCN(CC)CCNC(=O)c1cccc2cc3c(I)cccc3nc12` had a melting point of 78 to 80 °C.
The figure for `CCOC(=O)C1CCC(C(=O)OCC)N1C(=O)C(N)Cc1c[nH]c2ccccc12` (configuration not stated) is 144 to 149 °C; for `OC1(c2nccnc2Cl)CN2CCC1CC2` (configuration not stated) it is 215 to 216 °C; for `O=C1NC(N2CCN(c3cnc(Cl)cn3)CC2)c2ccccc21` (configuration not stated) it is 263 to 266 °C.
As to `Nc1cc(I)c(-c2cc([N+](=O)[O-])c(N)cc2I)cc1[N+](=O)[O-]`, the melting point fell in the range of 346 to 348 °C.
The figure for `O=C(O)CCCCCCCCCCCNC(=O)CCCCCCCCCCI` is 107 to 110 °C; for `c1ccc(Oc2cccc3c2CCN(Cc2c[nH]c4ncccc24)C3)cc1` it is 179 to 180 °C; for `O=c1ccc2ccccc2n1O` it is 188 °C.
